In patent publication US8012944B2, “Method for treating cancer using IAP antisense oligomer and chemotherapeutic agent” (Pharmascience Inc., priority 2003, dated 2011):

Assays:
Bcl-2 and Bax = assay: Bcl-2:Bax ratio in H460 cells (western blot); assay type: cell-based, human; details: 1.2 μM
Protocol: FIGS. 11A and 11B are schematic illustrations showing XIAP oligonucleotide-mediated effects on caspase activation. The effect of XIAP oligonucleotides F3, G4, or C5, or their respective RP and SC ODN controls at 1.2 μM on the expression of pro-caspase-3, PARP (both full length (116 kDa) and processed (85 kDa)) (FIG. 10A) and Bcl-2 and Bax protein levels (FIG. 10B) in transfected H460 cells compared to control is shown. Proteins expression was analyzed by western blotting. Bcl-2 and Bax protein levels were normalized to cellular actin levels and quantified by densitometry. […]
(§1) The cells or tumor tissue samples were lysed with ice-cold lysis buffer (50 mM Tris, 150 mM NaCl, 2.5 mM EDTA, 0.1% SDS, 0.5% sodium deoxycholate, 1% NP-40, 0.02% sodium azide) containing protease inhibitors (Complete-Mini protease inhibitor tablets; Boehringer Mannheim GmBH, Mannheim, Germany). […] Protein content in the lysed extracts was determined using a detergent-compatible Bio-Rad assay (Bio-Rad Labs, Hercules, Calif.). […] Proteins were detected by enhanced chemiluminescence (ECL; Amersham Pharmacia Biotech, Buckinghamshire, England) and visualized after exposure to Kodak autoradiography film. Scanning densitometry (Molecular Dynamics, Sunnyvale, Calif.) was performed to quantify band intensities by volume/area integration. […]

[1] = test system: subcutaneous H460 human non-small-cell lung tumor xenografts; assay: Systemic (i.p.) oligonucleotides with or without vinorelbine in H460 xenografts; assay type: in vivo, SCID-RAG2 mice; details: for mean tumor size: day 24, control 0.75
Protocol: Initial systemic PS-oligonucleotide studies were designed without any chemotherapeutic agents. SCID-RAG2 mice were inoculated with H460 human lung carcinoma cells (s.c. shoulder injection of 10^6 cells) and treatments with G4 and F3 AS PS-oligonucleotides, as well as a scrambled control, were initiated three days after tumor inoculation. Nucleobase oligomer injections were administered i.p. at 12.5 mg/kg three times a week for three weeks. At the end of the treatment period, mean tumor sizes in the groups treated with either G4 or F3 AS oligonucleotides were ˜50% smaller than in the group treated with a scrambled control oligonucleotides (FIG. 15). The same treatment protocol was tested on female SCID-RAG2 mice inoculated orthotopically with MDA-MB-435/LCC6 human breast carcinoma cells. Two weeks after the last treatment (day 35) tumor volumes of mice treated with F3, C5 or G4 AS oligonucleotides were 70%, 60%, and 45%, respectively, smaller than vehicle controls (FIG. 16).
We conducted additional examination of the antitumor effects of G4 AS oligonucleotides in SCID-RAG2 mice bearing xenografts of H460 human non-small-cell lung tumors implanted subcutaneously. Saline-treated control tumors grew reproducibly to a size of 0.75 cm^3 within approximately 24 days (FIG. 17). Oligonucleotide treatments were initiated three days after tumor cell inoculation. G4 AS oligonucleotides (5 to 15 mg/kg) were administered using a treatment schedule of i.p. injections given once a day on days 3-7, 10-14, and 17-21. The treatment with 5 or 15 mg/kg G4 AS oligonucleotides greatly delayed tumor growth: on day 24 mean tumor sizes were 0.75, 0.45 and 0.29 cm^3 in control, 5 and 15 mg/kg treated groups, respectively (FIG. 18A). There was a dose-dependent inhibition of tumor growth. […] A dose of 15 mg/kg was selected for the future combination treatment regimens with anticancer drugs.
The human non-small cell lung cancer cell line (large cell type) NCI-H460 (H460) was obtained from ATCC and maintained in RPMI 1640 supplemented with 10% FCS at 37° C. in a humidified atmosphere containing 5% CO2. Cells were used in exponential growth phase, up to a maximum of 25 in vitro passages. Male SCID-RAG2 mice (7-9 weeks old, 23-26 g) were obtained from British Columbia Cancer Agency Joint Animal Facility breeding colony and kept in aseptic environments. A tumor model of NCI-H460 cells in SCID-RAG2 mice was established by subcutaneous implantation of 1×10^6 NCI-H460 cells on the back of mice.
Efficacy experiments were conducted in male RAG2 immunodeficient mice bearing NCI-H460 tumours or female RAG2 mice bearing LCC6 tumors. Treatments were commenced on day 3 after tumor inoculation. Saline (controls), G4 AS oligonucleotides (5 or 15 mg/kg), or G4 SC oligonucleotides (5 or 15 mg/kg) were administered i.p. daily for five doses a week over a three week regimen. Vinorelbine (VNB, 5 or 10 mg/kg) was administered i.v. via the tail vein, either alone or in combination with oligonucleotides, at day 3, 7, 11 and 17 after tumor inoculation. When oligonucleotides were administered in combination with VNB, the drug treatment was performed four hours after ODN treatment.
Mice were observed daily. Body weight measurements and signs of stress (e.g., lethargy, ruffled coat, ataxia) were used to detect possible toxicities. Animals with ulcerated tumor, or tumor volumes of 1 cm^3 or greater were killed. Digital caliper measurements of tumors were converted into mean tumor size (cm^3) using the formula: ½[length (cm)]×[width (cm)]^2. An average tumor size per mouse was used to calculate the group mean tumor size±SE (n=6 mice) from at least two independent experiments per group.

human XIAP protein = assay: XIAP protein in H460 tumor xenografts (western blot); assay type: in vivo, mouse xenograft
Protocol: To correlate the tumor growth inhibitory effects of G4 AS oligonucleotides with XIAP protein expression, we examined the changes in XIAP expression at the end of the in vivo treatment with 15 mg/kg of G4 AS and SC oligonucleotides. At day 21 or 24 post-tumor inoculation when tumors reached 1 cm^3 in size (FIG. 17), tumors were harvested and lysates from tumor homogenates were used for western blot analysis. XIAP and β-actin antibodies against the human protein were used, allowing for determination of human XIAP levels obtained from tumor cells specimens without contamination from XIAP derived from mouse cells. […]
as §1

With “GCTGAGTCTCCATATTGCC [G4 AS] (chemistry not given here)” the “ratio of Bcl-2:Bax” value (Bcl-2 and Bax) was “unchanged”, the “tumor size as % of control mean tumor size” value ([1]; 15 mg/kg i.p.) was 39% and the “mean tumor size smaller than scrambled control group” value ([1]; PS-oligonucleotides 12.5 mg/kg i.p. three times a week for three weeks, end of treatment) was roughly 50%. For the same sequence, the mean tumor size ([1]; 5 mg/kg i.p.) was 0.45 cm^3, the mean tumor size ([1]; 15 mg/kg i.p.) was 0.29 cm^3 and the “antitumor efficacy on H460 xenografts (in words)” value ([1]; systemic, oligonucleotide 15 mg/kg i.p., VNB 5 or 10 mg/kg i.v.) was “significant sequence-specific growth inhibitory effects”. For the same sequence, the “down-regulation of XIAP protein in tumors vs control tumors” value (human XIAP protein; 15 mg/kg, day 21 or 24, P<0.005) was “approximately 85%” and the “down-regulation of XIAP protein in tumor xenografts” value (human XIAP protein; systemic administration) was 85%.
